Data from PubChem BioAssay AID812 (SRMLSC, 2007).
The source made the active and inactive calls. How the calls were made is not given here.

Tested on: Saccharomyces cerevisiae lifespan extension, no nicotinamide
Assay: yeast lifespan extension without nicotinamide, confirmation, yeast lifespan extension project, S. cerevisiae (AID 812);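 further: growth read as optical density after 42 hours of incubation at 30C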

SMILES	EC50
Cc1ccc(NC(=O)C2C(=O)N(C)c3ccccc32)cc1 (stereo not given)	> 40 µM (inactive)
Cn1c(=O)c2c(nc(Br)n2Cc2ccc3ccccc3c2)n(C)c1=O	> 40 µM (inactive)
CCOC(=O)c1cnc(-c2ccccc2)nc1Oc1ccc(Cl)cc1	> 40 µM (inactive)
CC1(C)CC(=O)C(C(=O)Cc2ccccc2[N+](=O)[O-])C(=O)C1	> 40 µM (inactive)
COC(=O)C1=C(C(=O)OC)SC(=C2C(=S)C(C)(C)N(C(=O)C(C)C)c3ccccc32)S1	> 40 µM (inactive)
C=CCn1c(C)cc(C(=O)CSc2nc3ccccc3c(=O)[nH]2)c1C	> 40 µM (inactive)
CCCc1cc(=O)oc2cc(C)c(CN3CCCC3)c(O)c12	> 40 µM (inactive)
CCOC(=O)CC1=NN(c2ccccc2)C(=O)/C1=C\c1ccc(OC)cc1OC	> 40 µM (inactive)
Oc1ccc2ccccc2c1C=Nc1ccc(N2CCOCC2)cc1	> 40 µM (inactive)
CCCC(=Nc1ccccc1)C1=C(O)C(C(=O)OC)C(C)(C)CC1=O (stereo not given)	> 40 µM (inactive)
O=C1c2ccccc2NC(c2cnc3ccccc3n2)N1O (stereo not given)	> 40 µM (inactive)
COc1ccc(C(CNC(=O)c2cccc(Br)c2)N2CCCC2)cc1 (stereo not given)	> 40 µM (inactive)
O=[N+]([O-])c1cc(S(=O)(=O)N2CCCCCC2)ccc1F	> 40 µM (inactive)
CCn1c(/C=N/c2nc3ccccc3n2C)nc2ccccc21	> 40 µM (inactive)
C/C(=N\NC(=O)c1cccc(Cl)c1)C1C(=O)c2ccccc2C1=O	> 40 µM (inactive)
O=C(NCC1CCCO1)c1c(O)c2ccccc2[nH]c1=O (stereo not given)	> 40 µM (inactive)
CN(C)/C=C(/C(=O)c1ccc(Cl)cc1Cl)S(=O)(=O)c1ccccc1	> 40 µM (inactive)
Cc1ccc(OCC(=O)c2c(O)c3ccccc3oc2=O)cc1C	> 40 µM (inactive)
O=C1CC(c2ccccc2)CC(O)=C1C=NCCN1CCN(C(=O)Cc2ccccc2)CC1 (stereo not given)	> 40 µM (inactive)
N#Cc1cc(C(=O)c2cc(F)ccc2O)cn(-c2nccs2)c1=O	> 40 µM (inactive)
Cc1ccc(C(=O)/C=C\C(=O)c2ccc(C)cc2)cc1	> 40 µM (inactive)
CCN1CCCC1CNC(=O)COc1cc(=O)n(C)c2ccccc12 (stereo not given)	> 40 µM (inactive)
Cc1cccc(N2C(=O)C(Oc3ccc(Cl)cc3Cl)C2C=O)c1C (stereo not given)	> 40 µM (inactive)
C=C(C(=O)c1ccccc1)C(C)C(=C)C(=O)c1ccccc1	> 40 µM (inactive)
C=CCN(CC=C)S(=O)(=O)c1ccc2nc(NC(=O)C(C)C)sc2c1	> 40 µM (inactive)

SMILES	EC50
O=c1cc(O)c2c(=O)n(-c3ccccc3)c3c(c2o1)CCCCC3	> 40 µM (inactive)
CCOC(=O)/C(=C/c1ccc(OC(=O)c2ccccc2)cc1)C(C)=O	> 40 µM (inactive)
O=C(O)Cc1ccc(N=Cc2c(O)ccc3ccccc23)cc1	> 40 µM (inactive)
COc1ccc(CN2C(=O)/C(=C/c3ccncc3)SC2=S)cc1	> 40 µM (inactive)
COC(=O)c1cc(OC)c(OC)cc1NC(=S)Nc1cccc(C(C)=O)c1	> 40 µM (inactive)
Cc1cc(N2C(=O)CC(Cc3ccccc3)C2=O)no1 (stereo not given)	> 40 µM (inactive)
CCCN1C(=O)/C(=C/c2ccncc2)SC1=S	> 40 µM (inactive)
Cc1ncc(C23CC4CC(CC(C4)C2)C3)[nH]1	> 40 µM (inactive)
CCNCCNC(=O)c1c(O)c2cccc3c2n(c1=O)CCC3	> 40 µM (inactive)
O=C(CS(=O)c1ccc(C(F)(F)F)cc1[N+](=O)[O-])Oc1ccccc1 (stereo not given)	> 40 µM (inactive)
COc1ccc(-c2cc(N)n(S(=O)(=O)c3c(F)c(F)c(F)c(F)c3F)n2)cc1OC	26.2 µM
CCCCCOC(=O)CSc1nc2c(c(=O)[nH]c(=O)n2C)n1CCc1ccccc1	> 40 µM (inactive)
O=C(/C(=C/O)N=Nc1ccc(Cl)cc1)c1ccncc1	> 40 µM (inactive)
COc1ccc(N(C)C(=S)Nc2ccc3nc(C)c(C)nc3c2)cc1	> 40 µM (inactive)
CCCCCCCCn1c(=O)c(C(=O)OCC)c(O)c2ccccc21	> 40 µM (inactive)
COc1ccccc1N(CN1CCCC1=O)C(=O)c1c(F)cccc1F	> 40 µM (inactive)
CCCCC(=Nc1ccccc1OC)C1=C(O)CC(c2ccccc2)CC1=O (stereo not given)	> 40 µM (inactive)
O=C(CCl)c1ccc(Cc2ncc(C(F)(F)F)cc2Cl)s1	> 40 µM (inactive)
C=C(CC)C(=O)c1ccc(OCC(=O)O)c(Cl)c1Cl	> 40 µM (inactive)
COc1ccc(C(=O)Nc2ccc(OCc3ccccc3)cc2)cc1[N+](=O)[O-]	> 40 µM (inactive)
O=c1c(Cl)c(NCCCO)cnn1-c1nc2ccccc2[nH]1	> 40 µM (inactive)
O=C1C=CC2C(c3ccc4c(c3)OCO4)CC1N2Cc1ccccc1 (stereo not given)	> 40 µM (inactive)
Oc1ccc2ccccc2c1/C=N/c1nccs1	> 40 µM (inactive)
CCCCCn1c(=O)c(C(=O)NCc2ccccn2)c(O)c2ccccc21	> 40 µM (inactive)
O=c1c2ccccc2nc(-c2ccc(Cl)c(Cl)c2)n1O	> 40 µM (inactive)

SMILES	EC50
COC(=O)c1cc(=O)n(-c2ccccc2)c(=Nc2ccccc2)s1	> 40 µM (inactive)
CCCC(=O)Nc1ccccc1Sc1ncnc2scc(-c3ccccc3)c12	> 40 µM (inactive)
CCc1ccc(CC2S/C(=C(\C#N)C(C)=O)NC2=O)cc1 (stereo not given)	> 40 µM (inactive)
Cc1cc(C)nc(SCc2cc(=O)c(OC(=O)c3ccc(Br)o3)co2)n1	> 40 µM (inactive)
COc1ccc2c3c(cccc13)C(=O)N(O)C2=O	> 40 µM (inactive)
CCOc1cc(/C=C\[N+](=O)[O-])ccc1OCC(=O)Nc1ccccc1C	> 40 µM (inactive)
CCOC(=O)CCS(=O)(=O)c1nc(-c2ccccc2)cc(C(F)(F)F)n1	> 40 µM (inactive)
Cc1cc(C)c(NC(=O)/C(=C/c2ccccc2)c2ccccc2)c(C)c1	> 40 µM (inactive)
CCCCn1c(=O)c2c(O)cc(=O)oc2c2ccccc21	> 40 µM (inactive)
CC1CC(C)CN(S(=O)(=O)c2cccc(C(=O)N3C(=O)c4cccc(N)c4C3=O)c2)C1 (stereo not given)	> 40 µM (inactive)
C=CS(=O)(=O)c1ccc(Oc2ccc(S(=O)(=O)C=C)cc2)cc1	> 40 µM (inactive)
O=C(N/N=C/c1ccc(F)cc1)c1c(O)c2ccccc2[nH]c1=O	> 40 µM (inactive)
O=c1c2ccccc2nc(-c2cccc(Cl)c2)n1O	> 40 µM (inactive)
CN1C(=O)C(C(=O)Nc2ccccc2F)c2ccccc21 (stereo not given)	> 40 µM (inactive)
Cc1ccc(NC(=O)Nc2nc(-c3ccc(C)s3)cs2)cc1	> 40 µM (inactive)
C=C(C(=O)c1ccccc1)C(C)CC(=O)c1ccccc1 (stereo not given)	> 40 µM (inactive)
O=[N+]([O-])c1cc2oc3c(c2c(C=NCc2ccncc2)c1O)CCCC3	> 40 µM (inactive)
COc1ccccc1-c1c(C)oc2cc(OC(=O)c3ccco3)ccc2c1=O	> 40 µM (inactive)
COc1ccc(C(=O)C(CN2CCOCC2)c2ccccc2)cc1F (stereo not given)	> 40 µM (inactive)
C[C@]12CC[C@@H]3c4ccc(O)cc4CC[C@H]3[C@@H]1CC[C@@H]2OC(=O)CCC(=O)O	> 40 µM (inactive)
Cc1cc2c(c(=O)n1CCc1ccccc1)C(c1ccco1)C(C#N)=C(N)O2 (stereo not given)	> 40 µM (inactive)
O=Cc1cccn1-c1sc2c(c1C(=O)O)CCCC2	> 40 µM (inactive)
Cn1c(SCC(=O)N2CCCc3ccccc32)nnc1-c1c[nH]c2ccccc12	> 40 µM (inactive)
CN1CCN(CC(=O)Nc2ccc(Cl)cc2Cl)CC1	> 40 µM (inactive)
Cc1nn(-c2c(Cl)cc(Cl)cc2Cl)c(=O)c2ccccc12	> 40 µM (inactive)

SMILES	EC50
Cc1c(NC(=O)C(=O)/C=C(\O)c2ccc(Cl)cc2)c(=O)n(-c2ccccc2)n1C	> 40 µM (inactive)
CC(C)C(c1nnnn1Cc1ccccc1)N1CCN(Cc2ccc3c(c2)OCO3)CC1 (stereo not given)	> 40 µM (inactive)
Cc1nc(SC(C)C)[nH]c(=O)c1Cc1ccccc1	> 40 µM (inactive)
Cc1ccc(/C=C/C(=O)C2C(=O)c3ccccc3C2=O)cc1	> 40 µM (inactive)
COc1ccc(CCN2C(=O)C(O)=C(C(=O)c3ccco3)C2c2cccs2)cc1OC (stereo not given)	> 40 µM (inactive)
CC(=O)N1CCN(CCN=CC2=C(O)CC(c3cccs3)CC2=O)CC1 (stereo not given)	> 40 µM (inactive)
CCOC(=O)c1c(C)oc2c1c(C(c1cccnc1)N1CCCCC1)c(O)c1ccccc12 (stereo not given)	> 40 µM (inactive)
O=S1(=O)C=C(Sc2nnc(-c3ccccc3)o2)c2ccccc21	> 40 µM (inactive)
CCOc1ccccc1/C=c1\sc2ncnn2c1=O	> 40 µM (inactive)
CCCCOC(=O)CSc1nc2c(c(=O)[nH]c(=O)n2C)n1C/C=C(\C)Cl	> 40 µM (inactive)
O=C(N/N=C/c1ccccc1)c1c(O)c2ccccc2[nH]c1=O	> 40 µM (inactive)
CC(=O)Nc1nc(C)c(Oc2ccccc2)c(=O)[nH]1	> 40 µM (inactive)
COc1ccc(CC(=O)Nc2ccc3c(c2)CCC3)cc1S(=O)(=O)N1CCOCC1	> 40 µM (inactive)
O=C(Nc1nc2ccccc2n1CCN1CCOCC1)c1cn(-c2ccccc2)nc1-c1ccccc1	> 40 µM (inactive)
O=C(Oc1ccc2c(c1)OCO2)C12CC3CC(CC(C3)C1)C2	> 40 µM (inactive)
COc1cc(/C=c2\sc3nc(-c4ccncc4)nn3c2=O)ccc1OC(C)=O	> 40 µM (inactive)
COC(=O)CC1=NN(c2ccccc2)C(=O)/C1=C\c1ccc(OC)cc1	> 40 µM (inactive)
Cc1ccc(Oc2nc3ccccc3n3c(C)nnc23)c(C)c1	> 40 µM (inactive)
Cc1ccc2nc(N3C(=O)C(O)=C(C(=O)c4ccco4)C3c3cccs3)sc2c1 (stereo not given)	> 40 µM (inactive)
COc1cccc(C2CC3C(=O)C=CC2N3Cc2ccccc2)c1 (stereo not given)	> 40 µM (inactive)
CCCCC(=O)Nc1ccc(C(=O)NNC(=S)NC(=O)c2cccs2)cc1	> 40 µM (inactive)
O=C(N/N=C/c1cccc(F)c1)c1c(O)c2ccccc2[nH]c1=O	> 40 µM (inactive)
CC1C/C(=C\c2cccnc2)C(=O)/C(=C/c2cccnc2)C1 (stereo not given)	> 40 µM (inactive)
O=C(NCc1ccco1)c1cc(C(=O)C2CCCCC2)c[nH]1	> 40 µM (inactive)
O=C(/C(=C/c1ccccc1)n1cncn1)c1ccc(Cl)cc1Cl	> 40 µM (inactive)
